Results published in patent publication US6472424B1, “Stabilized antimicrobial compositions containing halopropynyl compounds and benzylidene camphors” (Troy Technology Corporation, Inc., priority 2000, dated 2002).

Assay: Light-induced yellowing of IPBC-containing white test paint film after UV exposure
Format: physicochemical
Conditions: for effectiveness of the UV absorber in inhibiting degradation/yellowing of the IPBC: same test, assessment in words compared to the blank; for Δb value (difference in yellowing between blank paint and candidate paint sample): styrenated acrylic white house paint, IPBC 0.3%, formulation 20% IPBC / 40% UV absorber / 40% N-methyl pyrrolidone, paint film exposed to 340 nm UV radiation for four hours
Experimental: In the following examples a styrenated acrylic white house paint was used as the test medium to measure the effect of sunlight on the degradation of IPBC in various IPBC-containing compositions. The test paint composition was prepared by adding ingredients 2 through 6 slowly to a mixer containing water (ingredient 1). After mixing the composition for about 10 minutes, ingredients 7 through 11 were added, and mixing was continued until a smooth dispersion was obtained. Then the final two ingredients were added. Additional water can be added to obtain a desired viscosity.
In the following examples, a number of liquid formulations were prepared, each containing (1) 20% by weight IPBC (Troysan ® Polyphase® P-100), (2) 40% by weight of one of the UV absorbers indicated in each example which follows, and (3) 40% by weight of N-methyl pyrrolidone as a liquid vehicle. Each formulation was then incorporated into the white test paint by mixing in an amount sufficient to provide a test paint having IPBC present at a level of 0.3%. The paint formulations containing IPBC and UV absorbers were then applied on a Leneta chart with help of a 3 mil Bird type applicator. The paint film was allowed to dry for 10-15 minutes and then sprayed with a clear non-yellowing varnish (-3 mils), namely, Kamar Varnish 1312. The varnish was obtained from Krylon Products Group, The Specialty Division, Division of Sherwin-Williams Company, Ohio. The object of the varnish was to trap any of the chromophores formed during subsequent UV light exposure and to assure a short and reproducible test for accessing light-induced yellowing.
The paint film thus produced was exposed to 340 nm UV radiation for four hours and the yellowing was measured by Microflash 200D or Byk Handy Color measurement device. The difference in yellowing between a blank (the white test paint without fungicide) and the candidate paint sample, Δb, was recorded and used as the response for each test.

| SMILES | Δb value (difference in yellowing between blank paint and candidate paint sample) | effectiveness of the UV absorber in inhibiting degradation/yellowing of the IPBC |
| --- | --- | --- |
| Cc1ccccc1C=C1C(=O)C2(C)CCC1C2(C)C (stereo not drawn) [3-(2-methylbenzylidene)camphor] | 3.4 | reasonably effective |
| CC12CCC(C(=Cc3ccc4c(c3)OCCO4)C1=O)C2(C)C (stereo not drawn) [3-(3,4-dioxoethylenebenzylidene)camphor] | 2.4 | effective in inhibiting degradation of the IPBC |
| CC12CCC(C(=Cc3cccc(Cl)c3)C1=O)C2(C)C (stereo not drawn) [3-(3-chlorobenzylidene)camphor] | 3.3 | reasonably effective |
| Cc1cccc(C=C2C(=O)C3(C)CCC2C3(C)C)c1 (stereo not drawn) [3-(3-methylbenzylidene)camphor] | 2.7 | effective in inhibiting degradation of the IPBC |
| CCCCOc1ccc(C=C2C(=O)C3(C)CCC2C3(C)C)cc1 (stereo not drawn) [3-(4-butoxybenzylidene)camphor] | 1.8 | very effective |
| CCOc1ccc(C=C2C(=O)C3(C)CCC2C3(C)C)cc1 (stereo not drawn) [3-(4-ethoxybenzylidene)camphor] | 1.3 | very effective |
| CCCCNC(=O)OCC#CI [IPBC, 3-iodo-2-propynyl butyl carbamate, reference compound] | 7.1 | a significant yellow color develops |
| CC12CCC(C(=Cc3ccccc3)C1=O)C2(C)C (stereo not drawn) [benzylidenecamphor] | 2.8 | effective in inhibiting degradation of the IPBC |

Now from value to compound, other results behind:

| Δb value (difference in yellowing between blank paint and candidate paint sample) | SMILES | effectiveness of the UV absorber in inhibiting degradation/yellowing of the IPBC |
| --- | --- | --- |
| 3.6 | CC12CCC(C(=Cc3ccc(Br)cc3)C1=O)C2(C)C (stereo not drawn) [3-(4-bromobenzylidene)camphor] | reasonably effective |
| 3.5 | CC(C)c1ccc(C=C2C(=O)C3(C)CCC2C3(C)C)cc1 (stereo not drawn) [3-(4-isopropylbenzylidene)camphor] | reasonably effective |
| 1.3 | COc1ccc(C=C2C(=O)C3(C)CCC2C3(C)C)cc1 (stereo not drawn) [3-(4-methoxybenzylidene)camphor] | very effective |
| 2.5 | Cc1ccc(C=C2C(=O)C3(C)CCC2C3(C)C)cc1 (stereo not drawn) [3-(4-methylbenzylidene)camphor] | effective in inhibiting degradation of the IPBC |
